Results: US10294202B2, “Pyrrolidinones as herbicides” (FMC Corporation, priority 2013, dated 2019)

System: chickweed
Assay: Test C postemergence herbicide test
Type: in vivo, Stellaria media
Excerpt: At the same time, plants selected from these crop and weed species and also barley (winter barley, Hordeum vulgare), […]), chickweed (common chickweed, Stellaria media), deadnettle (henbit deadnettle, Lamium amplexicaule), and canarygrass (littleseed canarygrass, Phalaris minor) were planted in pots containing Redi-Earth® planting medium (Scotts Company, 14111 Scottslawn Road, Marysville, Ohio 43041) comprising spaghnum peat moss, vermiculite, wetting agent and starter nutrients and treated with postemergence applications of test chemicals formulated in the same manner. Plants ranged in height from 2 to 18 cm (1- to 4-leaf stage) for postemergence treatments. Treated plants and controls were maintained in a greenhouse for 13 to 15 days, after which time all species were compared to controls and visually evaluated. Plant response ratings, summarized in Table C, are based on a scale of 0 to 100 where 0 is no effect and 100 is complete control. A dash (-) response means no test result.

[1] = 16 g ai/ha, scale 0 to 100 (0 no effect, 100 complete control)
[2] = 31 g ai/ha, scale 0 to 100 (0 no effect, 100 complete control)
[3] = 62 g ai/ha, scale 0 (no effect) to 100 (complete control)
[4] = 125 g ai/ha, scale 0 to 100 (0 no effect, 100 complete control)
[5] = 250 g ai/ha, scale 0 to 100 (0 no effect, 100 complete control)

Structure (SMILES)	Plant response rating, Chickweed (8 g ai/ha, scale 0 to 100 (0 no effect, 100 complete control))	Plant response rating, Chickweed [1]	Plant response rating, Chickweed [2]	Plant response rating, Chickweed [3]	Plant response rating, Chickweed [4]	Plant response rating, Chickweed [5]
CN1CC(c2ccc(F)cc2)C(C(=O)Nc2cccc(F)c2F)C1=O (stereo not shown) [Compound 271]	0	5	5	50		
O=C1NCC(c2ccc(C(F)(F)F)cc2)C1C(=O)Nc1ccc(F)c(F)c1F (stereo not shown) [Compound 232]			70	85	85	85
O=C1NCC(c2cc(F)cc(F)c2)C1C(=O)Nc1cccc(F)c1F (racemic) [Compound 279]			5	75	30	5
CN1CC(c2cccc(C(F)(F)F)c2)C(C(=O)Nc2ccccc2F)C1=O (stereo not shown) [Compound 277]		0	40	0	40	
O=C1NCC(c2cc(F)cc(F)c2)C1C(=O)Nc1ccc(F)cc1F (racemic) [Compound 278]			0	0	0	0
O=C1NCC(c2cccc(Br)c2)C1C(=O)Nc1cccc(F)c1F (stereo not shown) [Compound 309]			30	50	65	70
O=C1NCC(c2cccc(OC(F)F)c2)C1C(=O)Nc1ccccc1F (stereo not shown) [Compound 223]			40	45	50	80
